These results are taken from patent publication US20250207131A1, “MODIFIED RNA AGENTS WITH REDUCED OFF-TARGET EFFECT” (Alnylam Pharmaceuticals, Inc., priority 2018, published 2025).

The subject of test [1] is TTR. Nature of the test: Mouse pharmacodynamic study, circulating TTR protein. On the set-up: key: fraction of vehicle-control group mean serum TTR protein. The note with it: mice, single dose 1 mg/kg, circulation, Day 7. The format is in vivo. The procedure:
In mouse pharmacodynamic studies, female C57BL/6 mice (Charles River Laboratories) were administered a single dose of a vehicle control (1×PBS or 0.9% sodium chloride) or siRNA subcutaneously in the upper back. Bleeds were collected by retro-orbital bleeding. Serum were separated by centrifuging at 13000 rpm at room temperature for 10 mins. Mouse livers were collected and immediately snap frozen in liquid nitrogen, and stored at −80° C. for mRNA and siRNA analysis.
Mouse TTR Serum Protein Methods:_TTR serum protein was quantified using a commercially available enzyme-linked immunosorbent assay, 41-ALBMS-E01 (ALPCO, Salem, NH), according to manufacturer's instructions. Briefly, serum samples were diluted 4000 fold in 1× ALPCO Kit Dilution Buffer. An 8-point mouse TTR standard curve was generated using 2.5× serial dilutions, ranging from 0 to 1000 ng/mL. Standards and samples (100 uL) were added to the plate and allowed to incubate for 30 minutes at room temperature. […] After a wash in ALPCO Kit 1× Wash Buffer, plates were incubated for 10 minutes at room temperature in the dark with 3,3′,5,5′-tetramethybenzidine (TMB) and hydrogen peroxide in citric acid buffer at pH 3.3. Reactions were quenched with 100 μL of […] sulfuric acid per well. Absorbance at […] was read on a SpectraMax plate reader, and data were fit to a 4-parameter curve (y=(A−D)/(1+(x/C)^B)+D) as calculated in Softmax Pro Software to determine serum TTR protein levels expressed in ug/mL. Protein levels at each time point were normalized to the respective group average of vehicle control serum protein values.

Test [2] relates to TTR. As to the kind of experiment: In vitro on-target activity, primary mouse hepatocytes, transfection, RT-qPCR (TTR siRNAs). The format is cell-based. The note with it: for On-target TX: 10 nM, log2 transformed, relative to the parent. The protocol: Cell culture and transfections: Primary Mouse Hepatocytes (Thermo Fisher Scientific/Gibco) were transfected by adding 4.9 μL of Opti-MEM plus 0.1 μL of Lipofectamine RNAiMax per well (Invitrogen, cat #13778-150) to 5 μL of siRNA duplexes per well into a 384-well plate and incubated at room temperature for 15 minutes. 40 μL of Dulbecco's Modified Eagle Medium (Hep3b) or William's Medium (PMH) containing ˜5 ×10^3 cells were then added to the siRNA mixture. Cells were incubated for 24 hours at 37° C. and then processed for RNA purification. Experiments were performed at 10 nM and 0.1 nM doses of siRNA.
Total RNA isolation using DYNABEADS mRNA Isolation Kit: RNA was isolated using an automated protocol on a BioTek-EL406 platform using DYNABEADs (Invitrogen, cat #61012). Briefly, 70 μL of Lysis/Binding Buffer and 10 μL of lysis buffer containing 3 μL of magnetic beads were added to each well. Plates were incubated on an electromagnetic shaker for 10 minutes at room temperature and then magnetic beads were captured and the supernatant was removed. Bead-bound RNA was then washed 2 times with 150 μL Wash Buffer A and once with Wash Buffer B. Beads were then washed with 150 μL Elution Buffer, re-captured and supernatant removed.
cDNA synthesis using ABI High capacity cDNA reverse transcription kit (Applied Biosystems, cat #4368813): 12 μL of a master mix containing 1.2 μL 10× Buffer, 0.48 μL 25× dNTPs, 1.2 μL 10× Random primers, 0.6 μL Reverse Transcriptase, 0.6 μL RNase inhibitor and 7.92 μL of H2O per reaction was added to RNA isolated above. Plates were sealed, mixed, and incubated on an electromagnetic shaker for 10 minutes at room temperature, followed by 2 h 37° C.
Real time PCR: 2 μL of cDNA were added to a master mix containing 2 μL water, 0.5 μL of either an appropriate GAPDH TaqMan VIC Probe or the target probe and 5 μL Lightcycler 480 probe master mix (Roche, cat #04887301001) per well in a 384 well plate (Roche, cat #04887301001). Real time PCR was done in a LightCycler480 Real Time PCR system (Roche). Each duplex was tested in quadruplicate and data were normalized to cells transfected with a non-targeting control siRNA. To calculate relative fold change, real time data were analyzed using the ΔΔCt method and normalized to assays performed with cells transfected with a non-targeting control siRNA.
RT qPCR for Ttr mRNA quantification:_Primary mouse hepatocytes (PMH) were cultured in Williams E Medium with 10% fetal bovine serum. Transfection of cells using RNAiMAX reagent was done as per the manufacturer's recommended protocol. Thus, cells were thawed immediately prior to transfection and then plated onto 384-well plates with a seed density of ˜5000 cells/well. Pre-incubated lipid/siRNA complex (0.1 μL RNAiMax, siRNA, in 5 μL Opti-MEM for 15 min) was added to a 384-well collagen-coated plate (BioCoat; Corning) and cells were incubated for 20 h at 37° C. in an atmosphere of 5% CO2. Eight 6-fold serial dilutions ranging from 10 to 0.036 nM were used to perform dose response experiments. Media was removed before washing and lysing the cells. Using Dynabeads mRNA isolation kit according to manufacturer's protocol, RNA was extracted and subsequently reverse-transcribed with the ABI high capacity cDNA reverse transcription kit. Quantification was done by real-time PCR, whereby the cDNA (2 μL) was added to a master mix that contained 0.5 μL mouse Gapdh TaqMan Probe, 0.5 μL Ttr TaqMan probes, and 5 μL Lightcycler 480 probe master mix per well in a 384-well 50 plate. Real-time PCR was accomplished in an ABI 7900HT RT-PCR system using the ΔΔCt (RQ) assay. Each duplex and concentration was tested in four biological replicates. To calculate relative fold change, real time data were analyzed using the ΔΔCt method and normalized to assays performed with cells transfected with 10 nM nonspecific siRNA. IC50 values were calculated using a 4-parameter fit model using XLFit.
On the technique in general: In qPCR the cycle at which signal appears reflects the starting amount.

Where [3] appears, read: antisense Position 7, Seq 3 (TTR).
[4] abbreviates: antisense Position 7, Seq 4 (TTR).
Setting [5] is: TTR-3, antisense strand modified at position 7, primary mouse hepatocytes.
The mark [6] stands for this setting: TTR-4, modification at antisense position 7, primary mouse hepatocytes.
Where [7] appears, read: antisense Position 5, Seq 3 (TTR).
Where [8] appears, read: TTR-3, antisense strand modified at position 5, primary mouse hepatocytes.

As a reminder, the IC50 is the concentration that gives 50% inhibition. As to 2′-(R)-Me-UNA [Mod 7 (R)], the results for the “On-target, level of protein remaining with respect to PBS control” value (“On-target, level of protein remaining” for short) in test [1] (setting [3]) and in test [1] (setting [4]) were 0.18 and 0.14, respectively. Further, the IC50 in test [2] (setting [5]) was determined as 0.0186 nM; in test [2] (setting [6]), 0.0277 nM. The entries for the “On-target TX” value in test [2] (setting [7]), in test [2] (setting [3]) and in test [2] (setting [4]) were 0.50, 0.15 and −0.99, respectively.
Take 2′-(S)-Me-UNA [Mod 7 (S)]: the figures for the “On-target, level of protein remaining” value in test [1] (setting [3]) and in test [1] (setting [4]) were 0.15 and 0.20, respectively. The IC50 came out at 0.00254 nM in test [2] (setting [8]), 0.0235 nM in test [2] (setting [5]) and 0.0486 nM in test [2] (setting [6]). Further, the results for the “On-target TX” value in test [2] (setting [7]), in test [2] (setting [3]) and in test [2] (setting [4]) were 0.43, 0.72 and −0.79, respectively.
With 3′-(R)-Me-UNA [Mod 6 (R)], the “On-target, level of protein remaining” value in test [1] (setting [3]) is on record as 0.20; in test [1] (setting [4]), 0.29. Besides, the results for the concentration for half-maximal inhibition (IC50) in test [2] (setting [8]), in test [2] (setting [5]) and in test [2] (setting [6]) were 0.00157 nM, 0.0348 nM and 0.0358 nM, respectively. Also, the “On-target TX” value is on record as −0.28 in test [2] (setting [7]), 0.67 in test [2] (setting [3]) and −0.98 in test [2] (setting [4]).
For 3′-(S)-Me-UNA [Mod 6 (S)], the results for the “On-target, level of protein remaining” value in test [1] (setting [3]) and in test [1] (setting [4]) were 0.20 and 0.23, respectively. Further, the results for the half-inhibitory concentration (IC50) in test [2] (setting [8]), in test [2] (setting [5]) and in test [2] (setting [6]) were 0.00316 nM, 0.0322 nM and 0.0239 nM, respectively. The entries for the “On-target TX” value in test [2] (setting [7]), in test [2] (setting [3]) and in test [2] (setting [4]) were 0.18, 0.06 and −0.31, respectively.
For 5′-(R)-Me-UNA [Mod 5 (R)], the “On-target, level of protein remaining” value was found to be 0.17 in test [1] (setting [3]) and 0.16 in test [1] (setting [4]). In addition, the 50% inhibitory concentration (IC50) in test [2] (setting [8]) stood at 0.00147 nM; in test [2] (setting [5]), 0.0138 nM; in test [2] (setting [6]), 0.0898 nM. Besides, the “On-target TX” value in test [2] (setting [7]) is 0.45; in test [2] (setting [3]), 0.50; in test [2] (setting [4]), −1.26.
On to 5′-(S)-Me-UNA [Mod 5 (S)], for which the entries for the “On-target, level of protein remaining” value in test [1] (setting [3]) and in test [1] (setting [4]) were 0.17 and 0.16, respectively. Besides, the IC50 in test [2] (setting [8]) turned out to be 0.0011 nM; in test [2] (setting [5]), 0.015 nM; in test [2] (setting [6]), 0.0421 nM. Further, the results for the “On-target TX” value in test [2] (setting [7]), in test [2] (setting [3]) and in test [2] (setting [4]) were −0.03, −0.04 and −0.97, respectively.
